Reference: the supplement of paper PMC10307832

Assays:
Experiment in all cases: relative viability (nuclei count vs DMSO), 5 days (fraction); higher = more cells survive
COR-L23 = test system: COR-L23
How it was run: (§1)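 Each reported value is a median over duplicate plates. It expresses relative viability: treated-well nuclei count divided by vehicle-well nuclei count. Lung cancer cell lines in 1536-well plates were dosed by pin tool a day after seeding, alone with one drug or with a fixed anchor-drug dose plus five library-drug doses (not always all listed) in √10 steps, and nuclei were counted after 5 days.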

SK-MES-1 = test system: SK-MES-1
How it was run: as §1

NCI-H1651 = test system: NCI-H1651
How it was run: as §1

NCI-H1623 = test system: NCI-H1623
How it was run: as §1

ABC-1 = test system: ABC-1
How it was run: as §1

ChaGo-K-1 = test system: ChaGo-K-1
How it was run: as §1

NCI-H1437 = test system: NCI-H1437
How it was run: as §1

SW 1573 = test system: SW 1573
How it was run: as §1

Nc1ccn([C@@H]2O[C@H](CO)[C@@H](O)[C@@H]2O)c(=O)n1 [Cytarabine] + CCNC(=O)c1noc(-c2cc(C(C)C)c(O)cc2O)c1-c1ccc(CN2CCOCC2)cc1 [Luminespib] (partner 0.01 µM)
relative viability (COR-L23; first compound 0.005 µM): 0.481 | relative viability (COR-L23; first compound 0.01581 µM): 0.789 | relative viability (COR-L23; first compound 0.05 µM): 0.628 | relative viability (COR-L23; first compound 0.1581 µM): 0.257 | relative viability (COR-L23; first compound 0.5 µM): 0.163 | relative viability (SK-MES-1; first compound 0.005 µM): 0.934 | relative viability (SK-MES-1; first compound 0.01581 µM): 0.565 | relative viability (SK-MES-1; first compound 0.05 µM): 0.319 | relative viability (SK-MES-1; first compound 0.1581 µM): 0.226 | relative viability (SK-MES-1; first compound 0.5 µM): 0.232 | relative viability (NCI-H1651; first compound 0.005 µM): 0.751 | relative viability (NCI-H1651; first compound 0.01581 µM): 1.02 | relative viability (NCI-H1651; first compound 0.05 µM): 0.954 | relative viability (NCI-H1651; first compound 0.1581 µM): 0.705 | relative viability (NCI-H1651; first compound 0.5 µM): 0.262 | relative viability (NCI-H1623; first compound 0.005 µM): 0.321 | relative viability (NCI-H1623; first compound 0.01581 µM): 0.361 | relative viability (NCI-H1623; first compound 0.05 µM): 0.316 | relative viability (NCI-H1623; first compound 0.1581 µM): 0.232 | relative viability (NCI-H1623; first compound 0.5 µM): 0.234 | relative viability (ABC-1; first compound 0.005 µM): 0.732 | relative viability (ABC-1; first compound 0.01581 µM): 0.624 | relative viability (ABC-1; first compound 0.05 µM): 0.712 | relative viability (ABC-1; first compound 0.1581 µM): 0.381 | relative viability (ABC-1; first compound 0.5 µM): 0.281 | relative viability (ChaGo-K-1; first compound 0.005 µM): 0.649 | relative viability (ChaGo-K-1; first compound 0.01581 µM): 0.43 | relative viability (ChaGo-K-1; first compound 0.05 µM): 0.263 | relative viability (ChaGo-K-1; first compound 0.1581 µM): 0.206 | relative viability (ChaGo-K-1; first compound 0.5 µM): 0.188 | relative viability (NCI-H1437; first compound 0.005 µM): 0.86 | relative viability (NCI-H1437; first compound 0.01581 µM): 0.852 | relative viability (NCI-H1437; first compound 0.05 µM): 0.571 | relative viability (NCI-H1437; first compound 0.1581 µM): 0.301 | relative viability (NCI-H1437; first compound 0.5 µM): 0.23 | relative viability (SW 1573; first compound 0.005 µM): 0.375 | relative viability (SW 1573; first compound 0.01581 µM): 0.228 | relative viability (SW 1573; first compound 0.05 µM): 0.285 | relative viability (SW 1573; first compound 0.1581 µM): 0.164 | relative viability (SW 1573; first compound 0.5 µM): 0.0905
